Measured values taken from patent US20090232899A1, “Mucoadhesive nanocomposite delivery system” (priority 2004, published 2009).

How the values were obtained:
[1] = low pH, simulated gastric fluid; cited from earlier work

Description for NIH3T3 fibroblast cells: The NIH3T3 fibroblast cells were used for cytotoxicity testing by methyl thiazol-2-YL-2,5-diphenyl tetrazolium bromide (MTT) staining. After seven days, the cell-containing samples were rinsed with serum-free media to remove the unattached cells and were transferred to a new plate. Then, 250 μl MTT solution was added to each sample and incubated for 4 hours to induce MTT formazan formation. Purple formazan was extracted with dimethyl sulfoxide (DMSO), and was used for optical density (OD) measurement with a Thermomax ELISA reader at a wavelength of 540 nm with DMSO as a blank.

## Cc1ncc([N+](=O)[O-])n1CCO [Metronidazole]
[1]
  Stability under the testing conditions, compared with amoxicillin: greater stability

## Chitosan
NIH3T3 fibroblast cells
  Viability of fibroblasts, ratio (%) of absorbance of sample group to group without treatment (NT): 90 ± 9%
